From patent US20040241194A1, “Food supplement for animals” (Phytosynthese, priority 2001, published 2004)

Columns and labels:
[1] = Influence on growth, study on white free-range chickens; type: in vivo
Method: This test is conducted under the same conditions by administering 2 kg of the composition of the invention per tonne to four batches of chickens.

[2] = Influence on growth of chickens, open-label study versus monensin; type: in vivo; settings: for Mean daily weight gain: composition at 1.5 kg per tonne
Method: The parameters considered are the performance index and the mean daily weight gain. The composition of the invention is administered at the rate of 1.5 kg per tonne.

With `CC[C@@]1([C@@H]2O[C@@H]([C@H]3O[C@@](O)(CO)[C@H](C)C[C@@H]3C)C[C@@H]2C)CC[C@H]([C@]2(C)CC[C@]3(C[C@H](O)[C@@H](C)[C@@H]([C@@H](C)[C@@H](OC)[C@H](C)C(=O)O)O3)O2)O1` [Control, monensin] the “Feed conversion index (quantity of feed for obtaining 1 kg of chicken)” value (shortened to “Feed conversion index”) ([1]; General Mean) was 2.979, the “Mean weight” value ([1]; General Mean) was 2.116 kg and the “Mean daily weight gain” value ([1]; General Mean, composition at 2 kg per tonne) was 25.46 g. The “Feed conversion index” value ([1]; Mean of the 1st third) was 2.810, the “Mean daily weight gain” value ([1]; Mean of the 1st third) was 26.30 g and the “Mean weight” value ([1]; Mean of the 1st third) was 2.265 kg. For the same compound, the “Feed conversion index” value ([1]; Mean of the 2nd third) was 2.960, the “Mean daily weight gain” value ([1]; Mean of the 2nd third) was 25.48 g and the “Mean weight” value ([1]; Mean of the 2nd third) was 2.131 kg. The “Feed conversion index” value ([1]; Mean of the 3rd third) was 3.167, the “Mean daily weight gain” value ([1]; Mean of the 3rd third) was 24.64 g and the “Mean weight” value ([1]; Mean of the 3rd third) was 2.054 kg. For the same compound, the “Mean weight” value ([2]; Table VI batch) was 2.083 kg, the Performance index ([2]; Table VI batch) was 87 and the “Mean daily weight gain” value ([2]; Table VI batch) was 25.32 g. The “Mean weight” value ([2]; Table VII batch) was 2.169 kg, the Performance index ([2]; Table VII batch) was 95 and the “Mean daily weight gain” value ([2]; Table VII batch) was 26.46 g.
